In patent US20080221094A1, “Metalloprotease inhibitors containing a squaramide moiety” (priority 2007, published 2008):

Biological target: T1, MMP-13 (Homo sapiens, UniProt P45452)
T1 construct: 10 μL of a 50 nM stock solution of catalytic domain of MMP-13 enzyme; purchased Invitek (Berlin) 30100812
Experiment: Assay for Determining MMP-13 Inhibition
Assay type: biochemical
Conditions: catalytic domain of MMP-13, fluorescent substrate
Procedure: The typical assay for MMP-13 activity is carried out in assay buffer comprised of 50 mM Tris, pH 7.5, 150 mM NaCl, 5 mM CaCl2 and 0.05% Brij-35. Different concentrations of tested compounds are prepared in assay buffer in 50 μL aliquots. 10 μL of a 50 nM stock solution of catalytic domain of MMP-13 enzyme (produced by Alantos or commercially available from Invitek (Berlin), Cat.# 30100812) is added to the compound solution. The mixture of enzyme and compound in assay buffer is thoroughly mixed and incubated for 10 min at room temperature. Upon the completion of incubation, the assay is started by addition of 40 μL of a 12.5 μM stock solution of MMP-13 fluorescent substrate (Calbiochem, Cat. No. 444235). The time-dependent increase in fluorescence is measured at the 320 nm excitation and 390 nm emission by automatic plate multireader. The IC50 values are calculated from the initial reaction rates.

IC50 [nM]	Compound
< 500	Nc1c(N2CCc3ccc(CNC(=O)c4nc(O)nc5ccccc45)cc3C2)c(=O)c1=O [Example 1]
< 500	Nc1c(N2CCc3ccc(CNC(=O)c4cnc5ccccc5n4)cc3C2)c(=O)c1=O [2/50]
